Data published in ChEMBL document CHEMBL4229562, “Introduction of a Methyl Group Curbs Metabolism of Pyrido[3,4- d]pyrimidine Monopolar Spindle 1 (MPS1) Inhibitors and Enables the Discovery of the Phase 1 Clinical Candidate N2-(2-Ethoxy-4-(4-methyl-4 H-1,2,4-triazol-3-yl)phenyl)-6-methyl- N8-neopentylpyrido[3,4- d]pyrimidine-2,8-diamine …” (J Med Chem, 2018).
In brackets after ≈: the same amount, converted by molar mass.

Key:
[1] = molecular target: T1, Dual specificity protein kinase TTK (Homo sapiens, UniProt P33981)
T1 sequence (P33981 whole entry): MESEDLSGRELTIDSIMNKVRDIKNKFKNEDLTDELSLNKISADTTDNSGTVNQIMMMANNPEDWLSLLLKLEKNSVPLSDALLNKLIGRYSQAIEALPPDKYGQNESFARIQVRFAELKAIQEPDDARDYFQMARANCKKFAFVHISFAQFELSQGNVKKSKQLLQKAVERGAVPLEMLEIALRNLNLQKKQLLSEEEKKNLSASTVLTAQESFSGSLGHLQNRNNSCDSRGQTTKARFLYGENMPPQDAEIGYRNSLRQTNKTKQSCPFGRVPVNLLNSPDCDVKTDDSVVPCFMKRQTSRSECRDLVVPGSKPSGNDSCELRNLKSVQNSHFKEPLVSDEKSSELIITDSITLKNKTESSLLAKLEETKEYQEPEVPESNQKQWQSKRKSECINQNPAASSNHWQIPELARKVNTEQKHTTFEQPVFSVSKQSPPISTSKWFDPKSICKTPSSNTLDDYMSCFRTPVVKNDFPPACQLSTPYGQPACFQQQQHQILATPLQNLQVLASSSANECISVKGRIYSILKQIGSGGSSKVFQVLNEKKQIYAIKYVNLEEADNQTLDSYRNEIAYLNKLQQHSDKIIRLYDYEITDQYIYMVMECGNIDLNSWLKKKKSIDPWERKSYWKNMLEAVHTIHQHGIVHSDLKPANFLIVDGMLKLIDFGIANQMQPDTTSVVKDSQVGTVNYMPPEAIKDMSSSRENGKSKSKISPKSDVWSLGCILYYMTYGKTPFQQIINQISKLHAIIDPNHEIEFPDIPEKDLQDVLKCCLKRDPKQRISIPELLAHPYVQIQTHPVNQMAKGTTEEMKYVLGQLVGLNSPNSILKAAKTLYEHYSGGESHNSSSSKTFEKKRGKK
Description: Inhibition of MPS1 autophosphorylation at Thr33/Ser37 in human HCT116 cells after 2 hrs by MSD assay

CDK2/Cyclin A2 = CDK2/Cyclin A2 (Homo sapiens, UniProt P24941)
[2] = molecular target: T1, Dual specificity protein kinase TTK; remark: listed apart in the source
Description: Inhibition of full length human N-terminal 6xHis-tagged MPS1 expressed in baculovirus expression system using 5FAM-H236 peptide as substrate after 60 to 90 mins by caliper assay

[3] = Lipophilicity, log P of the compound; type: physicochemical; conditions: octanol/water
Canis familiaris [4] = assay: Volume of distribution at steady state in dog at 1 mg/kg, iv by ESI-LCMS/MS analysis; type: ADME, organism-based, Canis lupus familiaris; conditions: in vivo
[5] = Cmax in dog at 5 mg/kg, po by ESI-LCMS/MS analysis; type: ADME, organism-based, Canis lupus familiaris; design: dose 5 mg/kg, route oral; conditions: in vivo
[6] = AUClast in dog at 5 mg/kg, po measured after 48 hrs by ESI-LCMS/MS analysis; type: ADME, organism-based, Canis lupus familiaris; conditions: in vivo
[7] = Oral bioavailability in dog at 5 mg/kg by ESI-LCMS/MS analysis; type: ADME, organism-based, Canis lupus familiaris; conditions: in vivo
Canis familiaris [8] = assay: Half life in dog at 1 mg/kg, iv by ESI-LCMS/MS analysis; type: ADME, organism-based, Canis lupus familiaris; conditions: in vivo
[9] = Solubility of the compound in PBS buffer at pH 7.4 by HPLC analysis; type: physicochemical
[10] = Intrinsic clearance in human liver microsomes assessed per mg protein at 1 uM preincubated for 10 mins followed NADPH/UDP-glucuronic acid addition and measured after 30 mins by LC-MS/MS analysis; type: ADME, microsome; conditions: 0.5 h
[11] = Clearance in mouse at 5 mg/kg, iv by ESI-LCMS/MS analysis; type: ADME, organism-based; conditions: in vivo
[12] = AUClast in mouse at 5 mg/kg, po measured after 6 hrs by ESI-LCMS/MS analysis; type: ADME, organism-based; conditions: in vivo
[13] = Intrinsic clearance in CD1 mouse liver microsomes assessed per mg protein at 1 uM preincubated for 10 mins followed NADPH/UDP-glucuronic acid addition and measured after 30 mins by LC-MS/MS analysis; type: ADME, microsome; conditions: 0.5 h
[14] = Cmax in rat at 5 mg/kg, po by ESI-LCMS/MS analysis; type: ADME, organism-based; design: dose 5 mg/kg, route oral; conditions: in vivo
Rattus norvegicus [15] = assay: Oral bioavailability in rat at 5 mg/kg by ESI-LCMS/MS analysis; type: ADME, organism-based; conditions: in vivo
Rattus norvegicus [16] = assay: Half life in rat at 5 mg/kg, iv by ESI-LCMS/MS analysis; type: ADME, organism-based; conditions: in vivo
[17] = Clearance in rat at 5 mg/kg, iv by ESI-LCMS/MS analysis; type: ADME, organism-based; conditions: in vivo
[18] = Volume of distribution at steady state in mouse at 5 mg/kg, iv by ESI-LCMS/MS analysis; type: ADME, organism-based; conditions: in vivo, read-out: Vdss
[19] = AUClast in rat at 5 mg/kg, po measured after 24 hrs by ESI-LCMS/MS analysis; type: ADME, organism-based; conditions: in vivo
[20] = Cmax in mouse at 5 mg/kg, po by ESI-LCMS/MS analysis; type: ADME, organism-based; design: dose 5 mg/kg, route oral; conditions: in vivo
Mus musculus [21] = assay: Oral bioavailability in mouse at 5 mg/kg by ESI-LCMS/MS analysis; type: ADME, organism-based; conditions: in vivo
Mus musculus [22] = assay: Half life in mouse at 5 mg/kg, iv by ESI-LCMS/MS analysis; type: ADME, organism-based; conditions: in vivo
[23] = Protein binding in mouse plasma; type: ADME, cell-free
[24] = Volume of distribution at steady state in rat at 5 mg/kg, iv by ESI-LCMS/MS analysis; type: ADME, organism-based; conditions: in vivo, read-out: Vdss
[25] = Volume of distribution at steady state in rat at 1 mg/kg, iv by ESI-LCMS/MS analysis; type: ADME, organism-based; conditions: in vivo, read-out: Vdss
Rattus norvegicus [26] = assay: Half life in rat at 1 mg/kg, iv by ESI-LCMS/MS analysis; type: ADME, organism-based; conditions: in vivo
[27] = Drug level in human liver microsomes treated with 1 uM N2-(2-Methoxy-4-(4-methyl-4H-1,2,4-triazol-3-yl)phenyl)-N8-neopentylpyrido[3,4-d]pyrimidine-2,8-diamine assessed as compound formation preincubated for 10 mins followed NADPH/UDP-glucuronic acid addition and measured after 30 mins by LC-MS/MS analysis; type: ADME, microsome; conditions: 0.5 h

Row | Structure (SMILES) | IC50 [1] [nM] | IC50 (CDK2/Cyclin A2) [nM] | Ki (CDK2/Cyclin A2) [nM] | IC50 [2] [nM] | Ki [2] [nM] | logP [3] | solubility [9] [µM] | CLH [10] [µL/min/mg] | CLH [13] [µL/min/mg] | further results
1 | CCOc1cc(-c2nncn2C)ccc1Nc1ncc2cc(C)nc(N3CCC3(C)C)c2n1 | 3800 | 26000 | 13000 | 400 | 4 | 3.58 |  |  |  | 
2 | CCOc1cc(-c2nncn2C)ccc1Nc1ncc2cc(C)nc(NCC(C)(C)C)c2n1.Cl.Cl |  |  |  |  |  |  |  |  |  | Vdss (Canis familiaris [4]): 1.1 L/kg; Cmax [5]: 7770 nM; AUC(0-t) at 48 h [6]: 147 µM·h; bioavailability [7]: 100%; t1/2 (Canis familiaris [8]): 12 h
3 | CCOc1cc(-c2nncn2C)ccc1Nc1ncc2cc(C)nc(N3CC(C)(C)C3)c2n1 | 37 | 1600 | 810 | 8.9 | 0.088 | 3.85 | 31.5 (≈ 14 µg/mL) | 25.2 | 44.3 | clearance [11]: 16.3 mL/min/kg; AUC(0-t) at 6 h [12]: 8.11 µM·h; Cmax [14]: 1420 nM; F (Rattus norvegicus [15]): 72%; t1/2 (Rattus norvegicus [16]): 3.03 h; clearance [17]: 7.35 mL/min/kg; Vd [18]: 2.09 L/kg; AUC(0-t) at 24 h [19]: 18.3 µM·h; Cmax [20]: 2350 nM; F (Mus musculus [21]): 75%; t1/2 (Mus musculus [22]): 1.58 h; PPB [23]: 99.28%; Vd [24]: 1.88 L/kg
4 | CCOc1cc(-c2nnc(C)n2C)ccc1Nc1ncc2cc(C)nc(NCC(C)(C)C)c2n1 | 33 | 940 | 470 | 12 | 0.12 | 4.49 | 1.8 (≈ 0.829 µg/mL) | 20.4 | 32.9 | 
5 | CCOc1cc(-c2nncn2C)ccc1Nc1ncc2cc(C)nc(N3CCCC3)c2n1 | 370 | 1100 | 550 | 83 | 0.82 | 3.58 |  |  |  | 
6 | CCOc1cc(-c2nncn2C)ccc1Nc1ncc2cc(C)nc(N3CC(C)(C#N)C3)c2n1 | 110 | 2700 | 1400 | 20 | 0.2 | 3.25 | 6.8 (≈ 3.1 µg/mL) | 5.6 | 24.7 | 
7 | CCOc1cc(-c2nncn2C)ccc1Nc1ncc2cc(C)nc(N[C@@H](C)C(C)(C)C)c2n1 | 23 | 150 | 77 | 4.7 | 0.047 | 4.61 |  | 15.2 | 25.3 | Vd [25]: 1.88 L/kg; clearance [11]: 8.4 mL/min/kg; AUC(0-t) at 6 h [12]: 13.8 µM·h; Cmax [14]: 1890 nM; F (Rattus norvegicus [15]): 92%; Vd [18]: 2.19 L/kg; t1/2 (Rattus norvegicus [26]): 4.52 h; Cmax [20]: 2920 nM; F (Mus musculus [21]): 86%; t1/2 (Mus musculus [22]): 3.47 h; PPB [23]: 99.91%
8 | COc1cc(-c2nnc(O)n2C)ccc1Nc1ncc2ccnc(NCC(C)(C)C)c2n1 |  |  |  |  |  |  |  |  |  | Drug uptake [27]: Active
9 | CCOc1cc(-c2nnc3n2CCC3)ccc1Nc1ncc2cc(C)nc(NCC(C)(C)C)c2n1 | 250 | > 10000 | > 5000 | 38 | 0.38 | 4.75 |  | 18.6 | 36.4 | 
10 | COc1cc(-c2nnc3n2CCC3)ccc1Nc1ncc2cc(C)nc(NCC(C)(C)C)c2n1 | 240 | 250 | 130 | 19 | 0.19 | 4.4 | 1.7 (≈ 0.78 µg/mL) | 28.8 | 28.8 | 
